Test results from US20100261682A1, “Method and Means for the Treatment of Cachexia” (Bioneris AB, priority 2007, published 2010).

Tests used:
MAC16 tumour = test: Tumour volume in MAC16 tumour-bearing mice treated with lipid soluble alpha-trinositol (Example 5); format: in vivo, NMRI mice; details: 6 mg/kg and 8 mg/kg groups versus control
Excerpt: (§1) Animals. Pure strain male NMRI mice (average body weight 25 g) were transplanted with fragments of the MAC16 tumour subcutaneously into the flank by means of a trochar, selected from donor animals with established weight loss (Bibby M C et al., Characterization of transplantable adenocarcinoma in the mouse colon producing cachexia in the recipient animals. J Natl Cancer Inst 78 (1987) 539-546). Transplanted animals were given a rat and mouse breeding diet (Special Diet Services, Witham, UK) and water at lib. Weight loss was evident 10 to 12 days after tumour implantation. Just prior to the development of weight loss […] were randomized into three groups of six animals each.
(§2) Administration of alpha-trinositol. A first experiment was started when the animals had lost about 5% of body weight. Aliquots of lipid soluble alpha-trinositol stock solution corresponding to doses of 6 mg/kg body weight and 8 mg/kg body weight for a 25 g animal were administered subcutaneously three times per day at 8.00, 12.00 and 16.00 hrs. The third group (control) was given an intravenous injection of 10 μl of PBS. Body weight (FIG. 26), tumour volume, and food (FIG. 27) and water (FIG. 28) intake were determined daily (for 5 days) after the last injection. Day 0 is the day of transplant and day 1 is the start of the experiment. The experiment was terminated on day 5 due to loss of controls.

[1] = test system: MAC16 tumour-bearing mice; test: Body weight, food and water intake in MAC16 tumour-bearing mice treated with lipid soluble alpha-trinositol (Example 5); format: in vivo, NMRI mice; details: for weight loss compared to the control group: 5 days
Excerpt: Materials. Lipid soluble alpha trinositol (1-D-tri-O-hexanoyl-myo-inositol 1,2,6-triphosphate) was formed by further esterification of 1-D-Myo-inositol 1,2,6-triphosphate.
as §1, §2

Compound: CCCCCC(=O)O[C@@H]1[C@@H](OC(=O)CCCCC)[C@@H](OP(=O)(O)O)[C@@H](OP(=O)(O)O)[C@H](OP(=O)(O)O)[C@H]1OC(=O)CCCCC [lipid soluble alpha trinositol, 1-D-tri-O-hexanoyl-myo-inositol 1,2,6-triphosphate]
- increase in tumour volume (MAC16 tumour): slightly higher in the control group
- weight loss compared to the control group ([1]; 6 mg/kg s.c. three times per day): significantly lower weight loss
- weight loss compared to the control group ([1]; 8 mg/kg s.c. three times per day): significantly lower weight loss
- average weight loss in 5 days ([1]; highest concentration (8 mg/kg), control about 6 g): about 3 g
